Assay results as given in patent publication US20210177879A1, “VITAMIN D RECEPTOR AGONIST” (Guanghzou University of Chinese Medicine, priority 2018, published 2021).

Key:
Type in all cases: in vivo, Balb/c mice
[1] = system: AOM/DSS colon cancer model; test: AOM/DSS colon cancer model, Experiment 1 (body weight, anal prolapse, organ coefficient, colon and tumor indexes)
Description: (§1) Experimental method: 90 Balb/c mice of 6-8 weeks were purchased from the Experimental Animal Center in Guangzhou University of Chinese Medicine, weighed about 18-22 g, and subjected to adaptive feeding for 10 days. Modeling was divided into three stages. In the first stage, except for the normal group of animals being given saline injection, each of the other animals were intraperitoneally injected with a carcinogen AOM (10 mg/kg), and given free access to 2% DSS water from the next day for 7 days, and then given access to replaced regular drinking water for 14 days. In the second stage, the animals were given free access to 2% DSS water for 10 days, and then given access to replaced regular drinking water for 14 days. In the third stage, the animals were given free access to 2% DSS water for 10 days, and then given access to replaced regular drinking water for 11 days. The normal group was given access to regular drinking water throughout the experiment. The diet, water drinking and body weights of the animals were recorded daily and DAI scores were made, and the animals were killed and harvested at the 10th week. In this experiment, the animals were divided into groups and administrated on the first day of a modeling period of the second stage, and the total number of groups was set to 5 groups. The first group was a blank control group (Normal), in which a total of 12 animals were given access to drinking water by gavage; the second group was a model group (AOM/DSS), in which a total of 22 animals were given access to drinking water by gavage; the third group was a positive drug control group (5-ASA+AOM/DSS), in which a total of 22 animals were given access to 100 mg/kg of mesalazine (5-ASA) by gavage; and the fourth and fifth groups were monotropein-intervening groups (Mo+AOM/DSS), which were a high dose of 8 mg/kg and a low dose of 2 mg/kg, respectively, with 17 animals in each group. Dosing was conducted daily until dissection.
(1) The calculation formula of a DAI score: DAI value=(score of weight loss+score of stool trait+score of blood in stool)/3.
The animals were anesthetized and harvested, and the liver, spleen, thymus and testis were weighed to calculate the organ coefficient; the colon tissue was taken, measured with a ruler for the length, and measured with a vernier caliper for the thickness, and the number and size of tumors and degree of colonic ulceration and adhesion were recorded; respective tissues were cut into small pieces and fixed, and the remaining tissues were frozen and stored; and the fixed tissues were used for HE staining and immunohistochemistry.

[2] = system: intestinal permeability; test: Determination of intestinal permeability in serum with FITC-dextran; settings: after third stage of modeling; monotropein high and low doses, 5-ASA 100 mg/kg
Description: Experimental method: 90 Balb/c mice of 6-8 weeks were purchased from the Experimental Animal Center in Guangzhou University of Chinese Medicine, weighed about 18-22 g, and subjected to adaptive feeding for 10 days. Modeling was divided into three stages. In the first stage, except for the normal group of animals being given saline injection, each of the other animals were intraperitoneally injected with a carcinogen AOM (10 mg/kg), and given free access to 2% DSS water from the next day for 7 days, and then given access to replaced regular drinking water for 14 days. In the second stage, the animals were given free access to 2% DSS water for 10 days, and then given access to replaced regular drinking water for 14 days. In the third stage, the animals were given free access to 2% DSS water for 10 days, and then given access to replaced regular drinking water for 11 days. […] The diet, water drinking and body weights of the animals were recorded daily and DAI scores were made, and the animals were killed and harvested at the 10th week. […] 25 μl of serum was taken and added with 100 μl PBS, and determined on a microplate reader for its fluorescence intensity, where the wavelength of the exciting light was 480 nm, and the wavelength of the emitting light was 520 nm. A standard curve was made and the sample concentration was calculated.

[3] = system: IL-6, IL-10, IL-1β; test: Determination of cytokines in intestinal tumor tissues by Elisa; settings: vs model group; high-dose monotropein (8 mg/kg) and positive drug 5-ASA (100 mg/kg)
Description: as §1, with “The first group was a blank control group (Normal), in which a total of 12 animals were given access to drinking water by gavage; the second group was a model group (AOM/DSS), in which a total of 22 animals were given access to drinking water by gavage; the third group was a positive drug control group (5-ASA+AOM/DSS), in which a total of 22 animals were given access to 100 mg/kg of mesalazine (5-ASA) by gavage; and the fourth and fifth groups were monotropein-intervening groups (Mo+AOM/DSS), which were a high dose of 8 mg/kg and a low dose of 2 mg/kg, respectively, with 17 animals in each group. Dosing was conducted daily until dissection.” left out
The intestinal tumor tissues frozen and stored at −80° C. were taken and homogenized, and the homogenate was determined with a BCA kit for the total protein concentration thereof. The homogenate was diluted by 20 times and then determined by Elisa method for cytokines: IL-6, IL-10, and IL-1β. […]

[4] = system: peripheral blood macrophages; test: Typing of peripheral blood macrophages by flow cytometry; settings: compared with normal group
Description: as §1, with “The first group was a blank control group (Normal), in which a total of 12 animals were given access to drinking water by gavage; the second group was a model group (AOM/DSS), in which a total of 22 animals were given access to drinking water by gavage; the third group was a positive drug control group (5-ASA+AOM/DSS), in which a total of 22 animals were given access to 100 mg/kg of mesalazine (5-ASA) by gavage; and the fourth and fifth groups were monotropein-intervening groups (Mo+AOM/DSS), which were a high dose of 8 mg/kg and a low dose of 2 mg/kg, respectively, with 17 animals in each group.” left out, “dissection. […]” for “dissection.”

## Nc1ccc(O)c(C(=O)O)c1 [5-ASA, mesalazine, reference compound]
[1]; monotropein high (8 mg/kg) and low (2 mg/kg) doses, 5-ASA 100 mg/kg
  spleen enlargement caused by AOM/DSS modeling (organ coefficient): has no such effect
[1]; per group, monotropein 8 mg/kg and 2 mg/kg groups (17 animals each), 5-ASA 100 mg/kg (22 animals), gavage daily, model group 8-12
  anal prolapse occurrence at the third stage of modeling: 8-12 animals
[2]
  intestinal permeability (FITC-dextran in serum) vs model group: not statistically significant
[3]
  level of IL-10 in tumor tissues: no significant differences
[4]
  M1/M2 ratio of peripheral blood macrophages: significantly reduced
